For 24 compounds, IC50 results are on record in BindingDB's records for doi:10.1021/cb500360c (AstraZeneca, 2014).

The term IC50 denotes the concentration that inhibits the measured activity by half. Read a high IC50 as lower potency.

In assay [1] the target is UDP-N-acetylmuramate--L-alanine ligase (Pseudomonas aeruginosa (strain ATCC 15692 / DSM 22644 / CIP 104116 / JCM 14847 / LMG 12228 / 1C / PRS 101 / PAO1), UniProt Q9HW02). Put plainly: P. aeruginosa MurC assay. Conditions: 25 °C. The protocol:
The reactions (50 μL) were carried out in 50 mM Tris-HCl pH 8.0, 20 mM ammonium sulfate, 2.5 mM DTT, 0.002% Brij-35, 1 mM MgCl2, 18 μM UNAM, 38 μM ATP, 28 μM L-alanine, 2 μg/mL Poly uridine nucleic acid, 0.1 μM Polynucleotide Phosphorylase, 0.25X ribogreen and 3 nM enzyme in 384-well plate at 25 C for 60 minutes.

For assay [2], the target named is UDP-N-acetylmuramate--L-alanine ligase (Escherichia coli (strain K12), UniProt P17952). Put plainly: E.coli MurC assay. Conditions: 25 °C. The protocol: The reactions (25 μL) were carried out in 25 mM Tris-HCl pH 8.0, 10 mM ammonium sulfate, 1.25 mM DTT, 0.002% Brij-35, 10 mM MgCl2, 40 μM UNAM, 100 μM ATP, 40 μM L-alanine and 15 nM enzyme in 384-well plate at 25 C for 50 minutes.
Chain of UDP-N-acetylmuramate--L-alanine ligase (Escherichia coli (strain K12), UniProt P17952) (P17952 whole entry): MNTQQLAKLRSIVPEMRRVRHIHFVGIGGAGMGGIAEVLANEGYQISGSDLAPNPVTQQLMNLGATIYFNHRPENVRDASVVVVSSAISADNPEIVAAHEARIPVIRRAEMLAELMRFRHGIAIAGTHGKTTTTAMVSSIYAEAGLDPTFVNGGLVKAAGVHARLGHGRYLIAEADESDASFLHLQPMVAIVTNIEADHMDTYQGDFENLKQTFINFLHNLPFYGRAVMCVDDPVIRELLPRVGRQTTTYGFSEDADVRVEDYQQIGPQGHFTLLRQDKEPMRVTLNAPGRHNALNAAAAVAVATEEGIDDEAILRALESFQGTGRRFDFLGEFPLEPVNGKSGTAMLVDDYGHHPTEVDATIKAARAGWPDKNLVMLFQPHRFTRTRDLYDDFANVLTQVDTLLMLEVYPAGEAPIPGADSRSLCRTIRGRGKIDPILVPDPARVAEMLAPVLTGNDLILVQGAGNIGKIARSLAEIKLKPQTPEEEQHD

Structures are written as SMILES.

With `Cn1nc(Nc2nc(N[C@@H](CO)c3ccccn3)nc3n[nH]cc23)cc1C(C)(C)C` [(R)-2-((4-((5-(tert-butyl)-1-methyl-1H-pyrazol-3-yl)amino)-1H-pyrazolo[3,4-d]pyrimidin-6-yl)amino)-2-(pyridin-2-yl)ethanol (14)], the concentration for half-maximal inhibition (IC50) came to 8 nM in assay [1] and 40 nM in assay [2].

As to `Cn1nc(Nc2nc(N[C@@H](COC(=O)NO)c3ccccc3)nc3n[nH]cc23)cc1C(C)(C)C` [(R)-2-(4-(5-tert-butyl-1-methyl-1H-pyrazol-3-ylamino)-1H-pyrazolo[3,4-d]pyrimidin-6-ylamino)-2-phenylethyl hydroxycarbamate (20)], the figures for the half-maximal inhibitory concentration (IC50) in assay [1] and in assay [2] were 6 nM and 52 nM, respectively.

With `Cn1nc(Nc2nc(NC(CO)C3CCOCC3)nc3n[nH]cc23)cc1C(C)(C)C` (stereo unspecified) [2-(4-(5-tert-butyl-1-methyl-1H-pyrazol-3-ylamino)-1H-pyrazolo[3,4-d]pyrimidin-6-ylamino)-2-(tetrahydro-2H-pyran-4-yl)ethanol (8)], the results for the IC50 in assay [1] and in assay [2] were 11 nM and 101 nM, respectively.

`Cn1nc(Nc2nc(N[C@@H](COC(=O)NCCN3CCC(=O)N3)c3ccccc3)nc3n[nH]cc23)cc1C(C)(C)C` [(R)-2-(4-(5-tert-butyl-1-methyl-1H-pyrazol-3-ylamino)-1H-pyrazolo[3,4-d]pyrimidin-6-ylamino)-2-phenylethyl 2-(3-oxopyrazolidin-1-yl)ethylcarbamate (25)]: the IC50 in assay [1] is 7 nM; in assay [2] it was 60 nM.

Turning to `COc1ccc([C@H](CO)Nc2nc(Nc3cc(C(C)(C)C)n(C)n3)c3c[nH]nc3n2)cc1` [(R)-2-((4-((5-(tert-butyl)-1-methyl-1H-pyrazol-3-yl)amino)-1H-pyrazolo[3,4-d]pyrimidin-6-yl)amino)-2-(4-methoxyphenyl)ethanol (16)], the IC50 in assay [1] amounted to 4 nM; in assay [2], 21 nM. Regarding `Cn1nc(Nc2nc(N[C@@H](COC(=O)NCc3cc(=O)c(O)cn3O)c3ccccc3)nc3[nH]ncc23)cc1C(C)(C)C` [(R)-2-(4-(5-tert-butyl-1-methyl-1H-pyrazol-3-ylamino)-1H-pyrazolo[3,4-d]pyrimidin-6-ylamino)-2-phenylethyl(1,5-dihydroxy-4-oxo-1,4-dihydropyridin-2-yl)methylcarbamate (23)], the IC50 in assay [1] is 1.3 nM; in assay [2], < 1 nM. Regarding `Cn1nc(Nc2nc(N[C@H](CO)C3CCCCC3)nc3n[nH]cc23)cc1C(C)(C)C` [((S)-2-(4-(5-tert-butyl-1-methyl-1H-pyrazol-3-ylamino)-1H-pyrazolo[3,4-d]pyrimidin-6-ylamino)-2-cyclohexylethanol (7)], in assay [1], half-maximal inhibition (IC50) was put at 5 nM. For `Cn1nc(Nc2nc(N[C@H](CO)c3cccc(F)c3)nc3n[nH]cc23)cc1C(C)(C)C` [(S)-2-((4-((5-(tert-butyl)-1-methyl-1H-pyrazol-3-yl)amino)-1H-pyrazolo[3,4-d]pyrimidin-6-yl)amino)-2-(3-fluorophenyl)ethanol (17)], the results for the concentration for half-maximal inhibition (IC50) in assay [1] and in assay [2] were < 0.5 nM and 4 nM, respectively. As for `Cn1nc(Nc2nc(N[C@@H](CO)c3ccccc3)nc3n[nH]cc23)cc1C(C)(C)C` [(R)-2-(4-(5-tert-butyl-1-methyl-1H-pyrazol-3-ylamino)-1H-pyrazolo[3,4-d]pyrimidin-6-ylamino)-2-phenylethanol (10)], the IC50 was 1 nM in assay [1] and < 5 nM in assay [2]. The compound `Cn1nc(Nc2nc(N[C@@H](CO)c3cccnc3)nc3n[nH]cc23)cc1C(C)(C)C` [(R)-2-((4-((5-(tert-butyl)-1-methyl-1H-pyrazol-3-yl)amino)-1H-pyrazolo[3,4-d]pyrimidin-6-yl)amino)-2-(pyridin-3-yl)ethanol (15)] had an IC50 in assay [1] of 9 nM.

Regarding `CC(C)[C@H](CO)Nc1nc(Nc2cc(C(C)(C)C)n(C)n2)c2c[nH]nc2n1` [(R)-2-(4-(5-tert-butyl-1-methyl-1H-pyrazol-3-ylamino)-1H-pyrazolo[3,4-d]pyrimidin-6-ylamino)-3-methylbutan-1-ol (9)], the IC50 turned out to be 13 nM in assay [1] and 188 nM in assay [2]. The corresponding values for `Cn1nc(Nc2nc(N[C@@H](COC(=O)NCCN)c3ccccc3)nc3n[nH]cc23)cc1C(C)(C)C` [(R)-2-(4-(5-tert-butyl-1-methyl-1H-pyrazol-3-ylamino)-1H-pyrazolo[3,4-d]pyrimidin-6-ylamino)-2-phenylethyl 2-aminoethylcarbamate (22)] are 0.7 nM and 4 nM. As to `OCC1CCCCN1c1nc(Nc2cc(C3CC3)[nH]n2)c2cn[nH]c2n1` (stereo unspecified) [(1-(4-(3-cyclopropyl-1H-pyrazol-5-ylamino)-1H-pyrazolo[3,4-d]pyrimidin-6-yl)piperidin-2-yl)methanol (1)], inhibition in assay [1] was half-maximal at 1000 nM (IC50).

Regarding `CN1C(=O)NC[C@H]1CNC(=O)OC[C@H](Nc1nc(Nc2cc(C(C)(C)C)n(C)n2)c2c[nH]nc2n1)c1ccccc1` [(R)-2-(4-(5-tert-butyl-1-methyl-1H-pyrazol-3-ylamino)-1H-pyrazolo[3,4-d]pyrimidin-6-ylamino)-2-phenylethyl ((S)-3-methyl-2-oxoimidazolidin-4-yl)methylcarbamate (24)], the half-maximal inhibitory concentration (IC50) in assay [1] was < 0.5 nM; in assay [2], 3 nM. Turning to `Cc1cc([C@H](CO)Nc2nc(Nc3cc(C(C)(C)C)n(C)n3)c3c[nH]nc3n2)on1` [(S)-2-(4-(5-tert-butyl-1-methyl-1H-pyrazol-3-ylamino)-1H-pyrazolo[3,4-d]pyrimidin-6-ylamino)-2-(3-methylisoxazol-5-yl)ethanol (12)], the IC50 in assay [1] turned out to be 7 nM; in assay [2], 60 nM. For the compound `Cn1nc(Nc2nc(N[C@@H]3c4ccccc4C[C@@H]3O)nc3n[nH]cc23)cc1C(C)(C)C` [(1R,2S)-1-(4-(5-tert-butyl-1-methyl-1H-pyrazol-3-ylamino)-1H-pyrazolo[3,4-d]pyrimidin-6-ylamino)-2,3-dihydro-1H-inden-2-ol (13)], the IC50 in assay [2] was 2 nM. For the compound `Cn1nc(Nc2nc(N[C@@H](CO)C3CCCCC3)nc3n[nH]cc23)cc1C(C)(C)C` [(R)-2-(4-(5-tert-butyl-1-methyl-1H-pyrazol-3-ylamino)-1H-pyrazolo[3,4-d]pyrimidin-6-ylamino)-2-cyclohexylethanol (6)], in assay [1], the IC50 came to 0.6 nM. Regarding `Cn1nc(Nc2nc(N[C@H](CO)c3ccccc3)nc3[nH]ncc23)cc1C(C)(C)C` [(S)-2-(4-(5-tert-butyl-1-methyl-1H-pyrazol-3-ylamino)-1H-pyrazolo[3,4-d]pyrimidin-6-ylamino)-2-phenylethanol (11)], the figures for the IC50 in assay [1] and in assay [2] were 8 nM and 11 nM, respectively. In assay [1], `OC[C@@H](Nc1nc(Nc2cc(C3CC3)n[nH]2)c2c[nH]nc2n1)C1CCCCC1` [(S)-2-cyclohexyl-2-(4-(3-cyclopropyl-1H-pyrazol-5-ylamino)-1H-pyrazolo[3,4-d]pyrimidin-6-ylamino)ethanol (2)] returned an IC50 of 50 nM. For `Cn1nc(Nc2nc(N[C@@H](COC(=O)NCCO)c3ccccc3)nc3n[nH]cc23)cc1C(C)(C)C` [(R)-2-(4-(5-tert-butyl-1-methyl-1H-pyrazol-3-ylamino)-1H-pyrazolo[3,4-d]pyrimidin-6-ylamino)-2-phenylethyl 2-hydroxyethylcarbamate (21)], the IC50 is 2 nM in assay [1] and 3 nM in assay [2].

Consider `CC(C)c1cc(Nc2nc(N[C@H](CO)C3CCCCC3)nc3n[nH]cc23)[nH]n1` [(S)-2-cyclohexyl-2-(4-(5-isopropyl-1H-pyrazol-3-ylamino)-1H-pyrazolo[3,4-d]pyrimidin-6-ylamino)ethanol (3)], for which half-maximal inhibition in assay [1] (IC50) required 10 nM. As for `Cn1nc(Nc2nc(N[C@@H](CO)c3ccncc3Cl)nc3n[nH]cc23)cc1C(C)(C)C` [(R)-2-((4-((5-(tert-butyl)-1-methyl-1H-pyrazol-3-yl)amino)-1H-pyrazolo[3,4-d]pyrimidin-6-yl)amino)-2-(3-chloropyridin-4-yl)ethanol (19)], the values for the half-inhibitory concentration (IC50) in assay [1] and in assay [2] were 8 nM and 57 nM, respectively.

Regarding `Cn1nc(Nc2nc(N[C@@H](COC(=O)N3CCOC(CN)C3)c3ccccc3)nc3n[nH]cc23)cc1C(C)(C)C` (stereo partly drawn) [(R)-((R)-2-(4-(5-tert-butyl-1-methyl-1H-pyrazol-3-ylamino)-1H-pyrazolo[3,4-d]pyrimidin-6-ylamino)-2-phenylethyl) 2-(aminomethyl)morpholine-4-carboxylate (26)], the figures for the IC50 in assay [1] and in assay [2] were 0.6 nM and 5 nM, respectively. The corresponding values for `COc1cc([C@H](CO)Nc2nc(Nc3cc(C(C)(C)C)n(C)n3)c3c[nH]nc3n2)ccn1` [(R)-2-(4-(5-tert-butyl-1-methyl-1H-pyrazol-3-ylamino)-1H-pyrazolo[3,4-d]pyrimidin-6-ylamino)-2-(2-methoxypyridin-4-yl)ethanol (18)] are 1.2 nM and 15 nM.
